Patent US20240307345A1, “R-MDMA and S-MDMA TO ASSIST PSYCHOTHERAPY” (Universitatsspital Basel, priority 2022, published 2024)

Columns and labels:
[1] = tested on: monkeys; conditions: cited from earlier work
[2] = tested on: rhesus monkeys; conditions: indicative of abuse-liability; cited from earlier work
[3] = tested on: healthy subjects; test: Endocrine effects (plasma prolactin and cortisol); type: in vivo, human
Protocol: Study design: The present study compares the acute subjective, physiological and endocrine effects of S-MDMA (125 mg), R-MDMA (125 and 250 mg), MDMA (125 mg) using a placebo-controlled double-blind 5-period cross-over design in 24 healthy subjects. Conditions are 1.) R-MDMA 125 mg, 2). R-MDMA 250 mg, 3) S-MDMA 125 mg, 4) MDMA 125 mg, 5) placebo. Treatment order is counterbalanced. Washout periods between substance administrations are at least 10 days. Study days include a 10-hour study session with a subsequent single measurement (short visit) the next morning (24 hours after drug administration).
Endocrine effects: Cortisol and prolactin: Cortisol and prolactin are determined as biological markers of serotonergic activity (Seifritz et al., 1996). Plasma concentrations are determined by routine immune assays. Oxytocin and vasopressin: MDMA increase circulating oxytocin (Hysek et al., 2014a) and vasopressin or its precursor copeptin (Simmler et al., 2011). These neurohormones are thought to mediate neurocognitive and adverse effects of MDMA and the role of R-versus S-MDMA remains to be explored. Oxytocin and vasopressin plasma levels are measured before and after substance administration. Concentrations are determined using immunoassays.

[4] = tested on: animals; conditions: cited from earlier work
[5] = tested on: mice; conditions: cited from earlier work

Compound	peak effects on prosocial behaviors [1]	reinstatement of amphetamine responding [2]	prolactin release ([3]; 125 mg S-MDMA compared to (±)-MDMA and 125 mg R-MDMA)	cortisol release ([3]; 125 mg S-MDMA compared to (±)-MDMA and both doses of R-MDMA)	hyperthermia [4]	lethal doses [5]
CN[C@H](C)Cc1ccc2c(c1)OCO2 [R-MDMA, R(−)-MDMA]	greater peak effects than S-MDMA	–	–	–	–	–
CN[C@@H](C)Cc1ccc2c(c1)OCO2 [S-MDMA, S(+)-MDMA]	–	reinstated amphetamine responding	increased more	increased cortisol release more	induced hyperthermia	similar
